EP0441832B1, “COMPOSITION AND TREATMENT WITH BIOLOGICALLY ACTIVE PEPTIDES AND CERTAIN ANIONS” (THE CHILDREN'S HOSPITAL OF PHILADELPHIA, priority 1988, dated 1990)
Read-outs that look alike come from different tables or passages of the source. Ends that are not written are not given here.

How the values were obtained:
Assay type in all cases: cell-based
[1] = tested on: E. cloacae; assay: Killing of bacteria: 15 min incubation in trypticase soy broth, then plating for viable organisms
Procedure: If 10⁷ E. cloacae organisms are inoculated into 1 ml of TSB in the presence of 60 ug/ml of MGN2, about 10⁶ bacteria are found to be viable on plating. […] The effective killing power of this antibiotic at a given concentration has been potentiated over 1 million-fold by the addition of fluoride.
LEGEND: Organisms were incubated in a volume of 1 ml in either trypticase soy broth alone or containing substances noted for 15 min at 37 °C. An aliquot was then diluted and plated to determine number of viable organisms.

[2] = tested on: ENTEROBACTER CLOACAE
Procedure: (§1) Approximately 1,000 bacteria were seeded into about 200 ul of trypticase soy broth. Either magainin 2 carboxy terminal amide, PGLa, or ALSKALSK ALSKALSKALSKALSK (Z-44) were added in increasing concentrations in the absence (Panel A) or presence (Panel B) of 50 mM NaF.

[3] = tested on: PSEUDOMONAS AERUGINOSA; settings: Panel A: Absence of NaF; approx. 1,000 bacteria in about 200 ul trypticase soy broth
Procedure: as §1

[4] = peptide 60ug/ml + NaF 25 mM, 10⁷ organisms in 1 ml TSB, 15 min at 37 C

Substance: GIGKFLHSAKKFGKAFVGEIMNS-NH2 [MGN2]
- bacteria viable on plating ([1]; 60 ug/ml peptide + 50 mM NaF, 10⁷ organisms in 1 ml TSB): all bacteria are killed
- potentiation of effective killing power by the addition of fluoride ([1]; 60 ug/ml peptide, with vs without NaF): over 1 million
- CFU [1, 4]: 0
- EOP (% viable) [1, 4]: 0%
- EOP (% viable) ([1]; peptide 60ug/ml alone, 10⁷ organisms in 1 ml TSB, 15 min at 37 C): 90%
- MINIMAL INHIBITORY CONCENTRATION [2]: exceeded 500 ug/ml
- MINIMAL INHIBITORY CONCENTRATION ([2]; Panel A: Absence of NaF, approx. 1,000 bacteria in about 200 ul trypticase soy broth, listed as MGN2 (Magainin II)): MGN2 (Magainin II) >500 ug/ml
- MINIMAL INHIBITORY CONCENTRATION [3]: MGN 2 250-500 ug/ml

Substance: sodium fluoride [NaF]
- EOP (% viable) ([1]; NaF 25mM alone, 10⁷ organisms in 1 ml TSB, 15 min at 37 C): 100%
